The results in this text go back to patent US9345793B2, “Compounds for binding to the platelet specific glycoprotein IIB/IIIA and their use for imaging of thrombi” (PIRAMAL IMAGING SA, priority 2011, dated 2016).

The nature of series [1]: Pharmacokinetics / biodistribution in mice. The format is in vivo. As to conditions: nude mice. The protocol:
The biodistribution of the compound described in example 41 was determined in nude mice. Briefly, the mice received 185 KBq of the compound each. At different time points ([…], 3 mice per group) the animals were sacrificed and the organs of interest or aliquots thereof were removed, weighted and finally measured in a gamma counter (Automatic Gamma Counter Wizard^2 3, Perkin Elmer).

A further series has as its system human thrombi. The experiment in a line: Ex vivo blood flow model: binding to human thrombi, incl. competition with cold compound. The settings on record: ± SEM. From the text:
The binding of compounds to thrombi was further investigated in an ex vivo blood flow model similar to that described in “Wakhloo, A. K. et al. Thrombus and stroke 2008, in vitro models 57-66” but modified with regard to thrombus development. Briefly, an open handmade tube-set consisting of tygon-tubes (Tygon R-1000, part N^O AAU00007: I.D. 3.2 mm, O.D. 6.4 mm, Saint Gobain Performance Plastics North America), intermediate tubes (Intrafix® Infusion set, B. Braun, Melsungen, Germany) an open reservoir (10 mL Combitip, Eppendorf) and a chamber made of a piece of polyethylene-Tube, ([…] Polyethylene Tubing, Clay Adams, PE160, length: 6.5 cm) containing a loop of a roughened thread (fishing line: Okuma UltraMax whitefish, diameter: 0.14 mm, length: 5 cm; sandpaper: CAMI Grit designation: 600, CP918a, VSM) was used for thrombus formation. The connection between the intermediate tube and the thrombus chamber was made by trimmed tips (epTIPS, 200 μL, Eppendorff, Hamburg/Germany). The Reservoir and the thrombus chamber were fixed by clamps and stands. A peristaltic-pump (Minipuls 3, Gilson, Middelton/USA) was used to pump the blood around thereby adjusting the flow in the middle of the thrombus chamber to 70-90 cm per second, which was monitored by ultrasound Doppler measurement (Vevo 770 High-Resolution In Vivo Micro-Imaging System, VisualSonics, TorontoOntario, Canada; Scanhead: RMV 704, 40 MHz). The volume of the entire tube-set was 7.5 or 15 mL.
For each experiment fresh blood was taken from a volunteer using 10 mL citrate-tubes (Sarstedt S-Monovette 02.1067.001, 10 mL, Citrate 3.13%) and immediately laid into the turning-device of an incubator at a temperature of 37° C. (Heraeus miniTherm CTT with integrated rotation- and turning device, turning speed: 19 rotations per minute, Heraeus Instruments GmbH, Hanau/Germany). As needed, two tubes were taken out of the turning-device and 15 mL were transferred to a 20 mL Syringe (Omnifix®, B. Braun, Melsungen/Germany) and gently mixed with 0.75 mL CaCl2-Solution before the peristaltic pump was started and the whole content of the syringe was transferred into the reservoir of the tube-set via a cell strainer (BD Falcon™ cell strain, 40 μm, BD, Franklin Lakes, N.J. USA). After 7 minutes 1 MBq or 0.5 MBq (15 mL or 7.5 mL) of the compound was added to the reservoir by means of a pipette, thereby mixing the content gently with the tip of the pipette. The blood was left circulating for another 3 minutes. Then, the pump was stopped, aliquots were taken from the blood and the thrombus together with the roughened thread was removed from the thrombus-chamber before both was weighted and measured in a gamma counter (Automatic Gamma Counter Wizard^2 3, Perkin Elmer). Then the thrombus together with the thread was incubated in Plasmin-solution (Plasmin from Human Plasma, Sigma Aldrich, stock-solution: 500 μg in 500 μL 150 μM Tris-buffer (pH 7.8), 20 μL stock-solution to 230 μL saline solution 0.9%) for 48 hours to separate the platelets from the thread and to determine the netto weight of the thrombus. Finally the activity of the compound in blood and thrombus as well as the ratio between both was determined (cpm/weight [mg]).
To verify the specificity of the compound, a competition experiment was conducted in which the cold compound was added to the reservoir together with the hot compound. The final plasma concentration of the cold compound was 2.8 μM.

A short description of series [2]: Plasma protein binding by equilibrium dialysis, monkey plasma. The settings on record: plasma (10% in buffer), Cynomolgus, read-out: Fu (Mari). The format is in vitro ADME. The method, then: (§1) The determination of the plasma protein binding of compounds was performed by means of an equilibrium dialysis in a 96-well HT plate. Solutions of test compound (0.3 μM and 3 μM) were prepared in buffer (50 mM phosphate buffer) and 10% plasma. A 96 well HT dialysis plate (Teflon) was assembled so that each well was divided in two compartments by a semi-permeable cellulose membrane (regenerated Cellulose, MWCO 12-14K). The phosphate buffer solution (150 μL) was added to one side of the membrane and the plasma solution to the other side (150 μL). The compounds were added to the plasma solution side and were incubated at 37 degree. The unbound fraction of the compound could pass through the membrane and equilibrium between the two sides could be reached (6-8 h, 37° C.). Both solutions were analyzed for each compound (plasma-free and plasma-containing) by LC-MS. Both solutions for each compound were diluted with buffer or plasma to reach the same matrix (10% plasma) for analysis and were precipitated by the addition of methanol. The fraction unbound (Fu) was calculated as the quotient of the equilibrium concentrations of the compound in plasma-free and plasma-containing solution.
(In equilibrium dialysis only unbound substance equilibrates across the membrane.)

Series [3] in a line: Plasma protein binding by equilibrium dialysis, human plasma. The format is in vitro ADME. As to conditions: plasma (10% in buffer), Caucasian, read-out: Fu (Mari). The method, then: as §1
The target in series [4] is human GPIIb/IIIa receptor (Homo sapiens (Human), UniProt P05106+P08514). The series is described as follows: Affinity assay: displacement of tritiated reference compound from immobilized purified GPIIb/IIIa. The format is binding. The protocol:
Affinity assay: In the first step human GPIIb/IIIa purified from human platelets was immobilized on a 96-well solid plate. After 48 hours the plates were washed and the unspecific binding sites were blocked with Roti®-Block. 2. In the next step, the plates were simultaneously incubated with a tritium labeled known GPIIb/IIIa binder (^3H) mixed with increasing concentrations of the novel small molecule compounds (inhibitor, ^19F). The higher the affinity of the inhibitor, the lower the bound fraction of the tritiated known GPIIb/IIIa binder (^3H) was. The fraction of tritiated compound (^3H), which is not displaced by inhibitor, was measured in a microplate scintillation counter.
Purified human glycoprotein IIb/IIIa (20 mM Tris-HCl, 0.1 M NaCl, 0.1% Triton X-100, 1 mM CaCl2, 0.05% NaN3, 50% Glycerol, pH 7.4) was purchased from Enzyme Research Laboratories Inc. (South Bend, Ind.). The GPIIb/IIIa receptor was diluted in phosphate-buffered saline (Dulbecco's Phosphate Buffered Saline (D-PBS(+)) with calcium and magnesium, GIBCO®, Invitrogen) with 0.01% bovine serum albumin (albumin from bovine serum—lyophilized powder, ≧96%, Sigma).
The GPIIb/IIIa receptor was immobilized 48 hours at least (100 μL per well, 48 to maximum 96 hours) on a 96-well solid plate (Immuno Plate MaxiSorp™, Nunc, Roskilde, Denmark) at 277 K to 280 K and at a concentration of 0.1 μg per well to 1 μg per well. As negative control one row of the plate (n=8) was incubated just with 2% bovine serum albumin (200 μper well, albumin from bovine serum—lyophilized powder, […], Sigma, diluted in D-PBS(+)). After washing three times with the wash buffer (230 μL per well, Dulbecco's Phosphate Buffered Saline (D-PBS (−)) contains no calcium or magnesium, GIBCO®, Invitrogen) residual exposed plastic and unspecific binding sites were blocked by incubating the plate with a special blocking solution (200 μL per well, Roti®-Block, Carl Roth GmbH Co KG, Karlsruhe) containing 2% bovine serum albumin (Albumin from bovine serum—lyophilized powder, ≧96%, Sigma) 1 hour at room temperature.
After washing three times with the wash buffer 50 μL of tritiated reference compound (60 nM, ^3H-labeled compound) and 50 μL of novel compound (inhibitor, ^19F) were simultaneously added to each well and incubated for 1 hour at room temperature. Several concentrations of each novel inhibitor (0.1, 1, 2, 5, 10, 20 50, 100, 200, 500, 1000, 2000, 5000, 10000 and 20000 nM) were investigated. At each concentration of inhibitor a fourfold determination was performed.
The maximum value of tritiated reference compound was determined without addition of inhibitor (n=8). To exclude unspecific binding of ^3H-reference compound wells without glycoprotein receptors were used as negative controls (n=12, identically treated just without GP IIb/IIIa receptors).
After one hour the plate was washed three times with phosphate-buffered saline (200 μL per well, Dulbecco's Phosphate Buffered Saline (D-PBS(+)), GIBCO®, Invitrogen). Following 140 μL of liquid scintillation cocktail (MicroScint™ 40 aqueous, Perkin Elmer) was added to each well. After 15 min at room temperature the plates were measured at the microplate scintillation counter (TopCount NXT v2.13, Perkin Elmer, Packard Instrument Company).
In the first step human glycoprotein IIb/IIIa, which is purified from human platelets, was immobilized on a 96-well solid plate. After 48 hours at least the plates were washed and the unspecific binding sites were blocked with Roti®-Block. In the next step, the plates were simultaneously incubated with a tritium labeled reference compound and the novel small molecule compound (inhibitor). The higher the affinity of the inhibitor, the smaller is the bound fraction of reference compound. The fraction of tritiated reference compound, which is not displaced by inhibitor, was measured at a microplate scintillation counter.

Where two headings read alike, the source gives them in different places.

Chain of human GPIIb/IIIa receptor (P08514 32-887): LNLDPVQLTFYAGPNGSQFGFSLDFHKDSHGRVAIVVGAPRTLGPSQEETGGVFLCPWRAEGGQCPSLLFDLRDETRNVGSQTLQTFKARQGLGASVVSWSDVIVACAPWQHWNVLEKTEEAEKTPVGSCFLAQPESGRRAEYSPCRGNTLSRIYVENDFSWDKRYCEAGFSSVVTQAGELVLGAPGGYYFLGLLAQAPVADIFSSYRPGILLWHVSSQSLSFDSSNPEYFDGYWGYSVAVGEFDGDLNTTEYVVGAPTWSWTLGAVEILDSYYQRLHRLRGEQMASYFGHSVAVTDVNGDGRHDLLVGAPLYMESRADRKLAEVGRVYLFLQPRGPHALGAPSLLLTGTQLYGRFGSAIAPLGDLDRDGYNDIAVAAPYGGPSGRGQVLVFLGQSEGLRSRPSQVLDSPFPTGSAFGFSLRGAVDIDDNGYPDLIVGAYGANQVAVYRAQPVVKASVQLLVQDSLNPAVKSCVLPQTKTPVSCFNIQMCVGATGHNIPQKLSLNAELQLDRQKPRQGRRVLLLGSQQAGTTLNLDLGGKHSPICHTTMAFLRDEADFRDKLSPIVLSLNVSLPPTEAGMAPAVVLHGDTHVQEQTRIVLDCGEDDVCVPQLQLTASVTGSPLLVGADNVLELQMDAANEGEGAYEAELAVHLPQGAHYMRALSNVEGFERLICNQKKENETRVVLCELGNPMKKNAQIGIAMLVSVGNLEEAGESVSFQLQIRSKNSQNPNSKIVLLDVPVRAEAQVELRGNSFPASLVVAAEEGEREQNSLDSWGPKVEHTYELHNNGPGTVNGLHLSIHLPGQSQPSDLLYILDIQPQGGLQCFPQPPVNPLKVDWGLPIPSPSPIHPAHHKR
Chain of human GPIIb/IIIa receptor (P08514 891-1039 partner): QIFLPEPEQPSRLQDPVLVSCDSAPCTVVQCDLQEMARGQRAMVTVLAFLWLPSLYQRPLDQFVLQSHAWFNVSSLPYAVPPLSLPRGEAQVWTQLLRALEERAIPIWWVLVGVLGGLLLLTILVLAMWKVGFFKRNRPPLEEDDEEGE
Chain of human GPIIb/IIIa receptor (P05106 27-788): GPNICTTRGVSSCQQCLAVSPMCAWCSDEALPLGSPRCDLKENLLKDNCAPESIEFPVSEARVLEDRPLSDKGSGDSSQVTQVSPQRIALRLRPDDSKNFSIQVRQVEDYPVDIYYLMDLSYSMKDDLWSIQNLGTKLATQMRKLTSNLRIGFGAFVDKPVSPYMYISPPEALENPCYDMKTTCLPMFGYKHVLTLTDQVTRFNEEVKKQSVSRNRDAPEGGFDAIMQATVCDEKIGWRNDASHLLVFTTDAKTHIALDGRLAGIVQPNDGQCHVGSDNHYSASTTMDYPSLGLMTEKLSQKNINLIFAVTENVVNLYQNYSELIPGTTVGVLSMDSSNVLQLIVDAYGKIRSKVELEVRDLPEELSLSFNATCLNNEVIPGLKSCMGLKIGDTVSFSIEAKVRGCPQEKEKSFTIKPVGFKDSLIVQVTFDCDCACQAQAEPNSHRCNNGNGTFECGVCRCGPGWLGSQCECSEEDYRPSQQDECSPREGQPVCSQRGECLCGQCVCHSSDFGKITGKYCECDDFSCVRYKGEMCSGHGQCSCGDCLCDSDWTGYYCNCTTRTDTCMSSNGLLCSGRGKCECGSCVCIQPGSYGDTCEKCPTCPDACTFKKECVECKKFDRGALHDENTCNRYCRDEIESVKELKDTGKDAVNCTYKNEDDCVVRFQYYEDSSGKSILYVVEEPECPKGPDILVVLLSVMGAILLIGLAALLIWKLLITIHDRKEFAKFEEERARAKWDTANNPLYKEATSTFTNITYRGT

As to `O=C(O)C[C@H](NC(=O)[C@@H]1CCCN(C(=O)CCC2CCNCC2)C1)c1cncc(-c2ccc(OCC[18F])cc2)c1` [Example 41, (3S)-3-{5-[4-(2-[^18F]Fluoroethoxy)phenyl]pyridin-3-yl}-3-[({(3R)-1-[3-(piperidin-4-yl)propanoyl]piperidin-3-yl}carbonyl)amino]propanoic acid], in series [1], the “enhancement in the vessel-wall” value was “no enhancement in the vessel-wall”; the excretion entry was “quickly excreted over the kidney and liver”. Besides, the “elimination from the blood” value in series [1] (185 KBq, 1-120 minutes p.i.) is “rapidly eliminated from the blood”. For the same compound, the “background in the rest of the body” value in series [1] (after 15 minutes p.i.) is listed as “almost no background in the whole rest of the body”. Further, the “in vitro clot-to-blood ratio” value in the series on human thrombi (3 minutes post-injection of 18F-labeled compound) is on record as 83 ± 14 (n = 6). Besides, in the series on human thrombi (3 minutes post-injection of 18F-labeled compound, without cold compound), the “Accumulation Thrombus” value was 44 ± 7 (n = 6) 10^3 cpm/mg. In addition, the Thrombus competition in the series with human thrombi (cold compound added with hot compound, final plasma concentration 2.8 μM, 3 minutes) was 5 ± 1 (n = 5) 10^3 cpm/mg.
Turning to `O=C(O)C[C@H](NC(=O)[C@@H]1CCCN(C(=O)CCC2CCNCC2)C1)c1cncc(-c2ccc(OCCF)cc2)c1` [Example 7, (3S)-3-{5-[4-(2-Fluoroethoxy)phenyl]pyridin-3-yl}-3-[({(3R)-1-[3-(piperidin-4-yl)propanoyl]piperidin-3-yl}carbonyl)amino]propanoic acid], the fraction unbound at 0.3 μM in series [2] (0.3 μM) worked out at 0.54; in series [3] (0.3 μM), 0.5. In addition, the fraction unbound at 3 μM in series [2] (3 μM) was 0.58; in series [3] (3 μM) it was 0.54. The IC50 in series [4] (19F compounds vs 60 nM 3H-labeled reference compound, 1 hour at room temperature, read-out: IC50 human) stood at 11 nM; in series [4] (values repeated beside the 18F-compound, read-out: IC50 human (corresponding 19F-compound, Table 2)), 11 nM.

Broadly, the IC50 is the concentration that inhibits the measured activity by half.
